# Results taken from patent US20150197497A1, “SELECTIVE INHIBITORS OF HISTONE DEACETYLASE ISOFORM 6 AND METHODS THEREOF” (DANA-FARBER CANCER INSTITUTE, INC., priority 2011, published 2015).
# Columns and labels:
# HDAC2 = target: T1, HDAC2 (Homo sapiens, UniProt Q92769); test: In vitro HDAC enzyme inhibition assay, HDAC2; type: biochemical; conditions: for HDAC2/HDAC6 in vitro selectivity: ratio of IC50 for HDAC2 relative to that of HDAC6; for IC50: recombinant full-length HDAC2, substrate MAZ1600 22 μM
# T1 construct: Recombinant, full-length HDAC protein (BPS Biosciences) was incubated with fluorophore conjugated substrate; purchased BPS Biosciences
# T1 sequence (Q92769 whole entry): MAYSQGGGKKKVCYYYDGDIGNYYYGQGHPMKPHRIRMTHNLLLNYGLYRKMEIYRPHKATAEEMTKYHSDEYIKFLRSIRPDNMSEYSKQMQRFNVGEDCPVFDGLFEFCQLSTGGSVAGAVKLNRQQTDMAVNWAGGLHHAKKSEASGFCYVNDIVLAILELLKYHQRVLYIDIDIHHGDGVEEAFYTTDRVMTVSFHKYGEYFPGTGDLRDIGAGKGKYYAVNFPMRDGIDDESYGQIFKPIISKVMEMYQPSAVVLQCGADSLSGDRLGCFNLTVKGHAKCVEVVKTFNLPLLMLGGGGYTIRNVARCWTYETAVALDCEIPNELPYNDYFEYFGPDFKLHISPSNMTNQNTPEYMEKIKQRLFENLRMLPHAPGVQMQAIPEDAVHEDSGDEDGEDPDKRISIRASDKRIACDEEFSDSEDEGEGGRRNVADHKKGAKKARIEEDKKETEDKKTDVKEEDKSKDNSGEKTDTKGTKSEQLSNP
# Protocol: (§1) In vitro Histone Deacetylase enzyme assays were performed using Class I (isoforms: HDAC1, HDAC2, HDAC3 and HDAC8), class IIa (isoforms: HDAC4, HDAC5, HDAC7 and HDAC9) and class IIb (isoform HDAC6).
# (§2) HDAC activities were determined in vitro with an optimized homogenous assay performed in a 384-well plate. Recombinant, full-length HDAC protein (BPS Biosciences) was incubated with fluorophore conjugated substrate, MAZ1600 and MAZ1675, at Km=[S]. […] Reactions were performed in assay buffer (50 mM HEPES, 100 mM KCl, 0.001% Tween-20, 0.05% BSA, 200 μM tris(2-carboxyethyl)phosphine (TCEP), pH 7.4) and followed for fluorogenic release of 7-amino-4-methylcoumarin from substrate upon deacetylase and trypsin enzymatic activity. Fluorescence measurements were obtained every five minutes using a multilabel plate reader and plate-stacker (Envision; Perkin-Elmer). Each plate was analyzed by plate repeat, and the first derivative within the linear range was imported into analytical software (Spotfire DecisionSite and GraphPad Prism). Replicate experimental data from incubations with inhibitor were normalized to controls.
# HDAC3 = target: T2, HDAC3 (Homo sapiens, UniProt O15379); test: In vitro HDAC enzyme inhibition assay, HDAC3; type: biochemical; conditions: for HDAC3/HDAC6 in vitro selectivity: ratio of IC50 for HDAC3 relative to that of HDAC6; for IC50: recombinant full-length HDAC3, substrate MAZ1600 9 μM
# T2 construct: Recombinant, full-length HDAC protein (BPS Biosciences) was incubated with fluorophore conjugated substrate; purchased BPS Biosciences
# T2 sequence (O15379 whole entry): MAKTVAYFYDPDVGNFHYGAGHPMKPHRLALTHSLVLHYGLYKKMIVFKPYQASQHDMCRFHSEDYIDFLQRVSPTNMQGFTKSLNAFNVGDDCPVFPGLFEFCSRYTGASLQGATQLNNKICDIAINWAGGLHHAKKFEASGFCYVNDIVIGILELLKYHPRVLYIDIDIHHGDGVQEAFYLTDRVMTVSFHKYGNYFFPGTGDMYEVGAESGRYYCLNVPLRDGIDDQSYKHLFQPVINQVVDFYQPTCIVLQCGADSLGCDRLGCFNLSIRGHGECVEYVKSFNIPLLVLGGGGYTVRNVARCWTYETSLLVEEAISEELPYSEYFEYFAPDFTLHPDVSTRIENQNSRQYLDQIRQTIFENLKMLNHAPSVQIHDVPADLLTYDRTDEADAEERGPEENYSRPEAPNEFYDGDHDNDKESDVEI
# T2 sequence (Q9Y618 395-489 partner limits assumed): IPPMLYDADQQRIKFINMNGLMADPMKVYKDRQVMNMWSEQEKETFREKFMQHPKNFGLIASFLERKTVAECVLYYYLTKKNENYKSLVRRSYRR
# Protocol: as §1, §2
# HDAC5 = target: T3, HDAC5 (Homo sapiens, UniProt Q9UQL6); test: In vitro HDAC enzyme inhibition assay, HDAC5; type: biochemical; conditions: for HDAC5/HDAC6 in vitro selectivity: ratio of IC50 for HDAC5 relative to that of HDAC6; for IC50: recombinant full-length HDAC5, substrate MAZ1675 40 μM
# T3 construct: Recombinant, full-length HDAC protein (BPS Biosciences) was incubated with fluorophore conjugated substrate; purchased BPS Biosciences
# T3 sequence (Q9UQL6 whole entry): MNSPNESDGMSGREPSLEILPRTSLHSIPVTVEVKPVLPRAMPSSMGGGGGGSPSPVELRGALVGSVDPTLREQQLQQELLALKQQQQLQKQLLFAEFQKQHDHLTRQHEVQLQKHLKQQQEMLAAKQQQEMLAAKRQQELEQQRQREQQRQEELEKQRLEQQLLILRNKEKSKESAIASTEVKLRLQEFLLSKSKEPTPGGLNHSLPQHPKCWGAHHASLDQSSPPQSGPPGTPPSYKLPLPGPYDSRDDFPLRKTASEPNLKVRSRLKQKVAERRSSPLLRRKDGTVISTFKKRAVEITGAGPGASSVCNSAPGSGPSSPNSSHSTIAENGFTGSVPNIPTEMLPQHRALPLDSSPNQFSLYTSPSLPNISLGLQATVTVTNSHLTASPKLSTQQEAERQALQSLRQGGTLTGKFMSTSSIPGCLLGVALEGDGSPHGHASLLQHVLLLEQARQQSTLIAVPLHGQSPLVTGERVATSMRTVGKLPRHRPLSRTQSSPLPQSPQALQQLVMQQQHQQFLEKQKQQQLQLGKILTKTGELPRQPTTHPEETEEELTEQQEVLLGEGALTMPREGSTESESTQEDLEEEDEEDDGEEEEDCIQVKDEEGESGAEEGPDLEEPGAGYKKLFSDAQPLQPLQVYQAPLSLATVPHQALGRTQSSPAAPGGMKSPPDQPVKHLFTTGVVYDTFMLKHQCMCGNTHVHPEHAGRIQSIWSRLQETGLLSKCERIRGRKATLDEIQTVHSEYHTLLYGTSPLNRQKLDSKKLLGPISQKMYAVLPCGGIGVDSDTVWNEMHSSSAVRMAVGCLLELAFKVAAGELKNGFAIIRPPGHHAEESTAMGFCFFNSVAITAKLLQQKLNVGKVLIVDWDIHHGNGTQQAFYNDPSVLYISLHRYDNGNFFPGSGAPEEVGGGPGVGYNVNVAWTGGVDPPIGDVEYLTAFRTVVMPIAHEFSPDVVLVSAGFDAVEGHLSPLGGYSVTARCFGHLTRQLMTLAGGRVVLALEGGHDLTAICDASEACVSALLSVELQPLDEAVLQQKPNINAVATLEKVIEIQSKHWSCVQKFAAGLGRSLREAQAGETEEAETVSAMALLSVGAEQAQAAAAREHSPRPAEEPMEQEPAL
# Protocol: as §1, §2
# HDAC7 = target: T4, HDAC7 (Homo sapiens, UniProt Q8WUI4); test: In vitro HDAC enzyme inhibition assay, HDAC7; type: biochemical; conditions: for HDAC7/HDAC6 in vitro selectivity: ratio of IC50 for HDAC7 relative to that of HDAC6; for IC50: recombinant full-length HDAC7, substrate MAZ1675 22 μM
# T4 construct: Recombinant, full-length HDAC protein (BPS Biosciences) was incubated with fluorophore conjugated substrate; purchased BPS Biosciences
# T4 sequence (Q8WUI4 1-952): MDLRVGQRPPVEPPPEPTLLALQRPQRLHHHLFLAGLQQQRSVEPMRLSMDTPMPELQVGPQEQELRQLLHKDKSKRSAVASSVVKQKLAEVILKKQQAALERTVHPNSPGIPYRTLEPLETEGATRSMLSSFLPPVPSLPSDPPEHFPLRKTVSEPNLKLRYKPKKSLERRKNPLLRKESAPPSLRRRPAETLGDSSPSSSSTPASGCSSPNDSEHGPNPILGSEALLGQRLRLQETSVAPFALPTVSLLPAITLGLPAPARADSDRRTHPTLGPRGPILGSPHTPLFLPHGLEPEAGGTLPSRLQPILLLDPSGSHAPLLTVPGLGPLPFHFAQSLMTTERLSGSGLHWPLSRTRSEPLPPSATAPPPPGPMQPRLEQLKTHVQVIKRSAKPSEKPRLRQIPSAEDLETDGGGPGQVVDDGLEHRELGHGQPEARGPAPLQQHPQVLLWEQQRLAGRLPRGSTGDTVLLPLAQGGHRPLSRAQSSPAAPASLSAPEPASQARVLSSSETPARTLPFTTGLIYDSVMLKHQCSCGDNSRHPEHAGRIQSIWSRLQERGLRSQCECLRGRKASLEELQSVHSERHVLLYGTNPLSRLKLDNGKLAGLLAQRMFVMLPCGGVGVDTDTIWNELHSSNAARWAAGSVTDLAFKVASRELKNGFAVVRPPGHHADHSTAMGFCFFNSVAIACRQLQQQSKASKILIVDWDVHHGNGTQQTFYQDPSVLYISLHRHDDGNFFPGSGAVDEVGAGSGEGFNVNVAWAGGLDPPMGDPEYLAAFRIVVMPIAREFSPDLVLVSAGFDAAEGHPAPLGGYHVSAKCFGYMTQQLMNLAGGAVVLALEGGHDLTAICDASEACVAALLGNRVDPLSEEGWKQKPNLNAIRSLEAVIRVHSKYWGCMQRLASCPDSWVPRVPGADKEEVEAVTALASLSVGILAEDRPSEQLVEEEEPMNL
# Protocol: as §1, §2
# HDAC8 = target: T5, HDAC8 (Homo sapiens, UniProt Q9BY41); test: In vitro HDAC enzyme inhibition assay, HDAC8; type: biochemical; conditions: for HDAC8/HDAC6 in vitro selectivity: ratio of IC50 for HDAC8 relative to that of HDAC6; for IC50: recombinant full-length HDAC8, substrate MAZ1675 282 μM
# T5 construct: Recombinant, full-length HDAC protein (BPS Biosciences) was incubated with fluorophore conjugated substrate; purchased BPS Biosciences
# T5 sequence (Q9BY41 1-377): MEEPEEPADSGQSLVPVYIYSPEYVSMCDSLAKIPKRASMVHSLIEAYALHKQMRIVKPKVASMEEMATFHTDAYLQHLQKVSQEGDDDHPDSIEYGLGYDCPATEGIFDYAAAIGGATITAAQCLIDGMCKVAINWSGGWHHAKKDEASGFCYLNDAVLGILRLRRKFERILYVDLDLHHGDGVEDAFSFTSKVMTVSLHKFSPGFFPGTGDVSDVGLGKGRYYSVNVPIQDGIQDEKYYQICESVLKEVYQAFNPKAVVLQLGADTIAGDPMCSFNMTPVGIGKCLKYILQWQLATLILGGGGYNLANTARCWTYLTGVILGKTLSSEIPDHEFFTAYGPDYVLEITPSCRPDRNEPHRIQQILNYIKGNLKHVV
# Protocol: as §1, §2
# HDAC9 = target: T6, HDAC9 (Homo sapiens, UniProt Q9UKV0); test: In vitro HDAC enzyme inhibition assay, HDAC9; type: biochemical; conditions: for HDAC9/HDAC6 in vitro selectivity: ratio of IC50 for HDAC9 relative to that of HDAC6; for IC50: recombinant full-length HDAC9, substrate MAZ1675 26 μM; for selectivity toward HDAC6 compared to HDAC9 (in words): tested in vitro
# T6 construct: Recombinant, full-length HDAC protein (BPS Biosciences) was incubated with fluorophore conjugated substrate; purchased BPS Biosciences
# T6 sequence (Q9UKV0 whole entry): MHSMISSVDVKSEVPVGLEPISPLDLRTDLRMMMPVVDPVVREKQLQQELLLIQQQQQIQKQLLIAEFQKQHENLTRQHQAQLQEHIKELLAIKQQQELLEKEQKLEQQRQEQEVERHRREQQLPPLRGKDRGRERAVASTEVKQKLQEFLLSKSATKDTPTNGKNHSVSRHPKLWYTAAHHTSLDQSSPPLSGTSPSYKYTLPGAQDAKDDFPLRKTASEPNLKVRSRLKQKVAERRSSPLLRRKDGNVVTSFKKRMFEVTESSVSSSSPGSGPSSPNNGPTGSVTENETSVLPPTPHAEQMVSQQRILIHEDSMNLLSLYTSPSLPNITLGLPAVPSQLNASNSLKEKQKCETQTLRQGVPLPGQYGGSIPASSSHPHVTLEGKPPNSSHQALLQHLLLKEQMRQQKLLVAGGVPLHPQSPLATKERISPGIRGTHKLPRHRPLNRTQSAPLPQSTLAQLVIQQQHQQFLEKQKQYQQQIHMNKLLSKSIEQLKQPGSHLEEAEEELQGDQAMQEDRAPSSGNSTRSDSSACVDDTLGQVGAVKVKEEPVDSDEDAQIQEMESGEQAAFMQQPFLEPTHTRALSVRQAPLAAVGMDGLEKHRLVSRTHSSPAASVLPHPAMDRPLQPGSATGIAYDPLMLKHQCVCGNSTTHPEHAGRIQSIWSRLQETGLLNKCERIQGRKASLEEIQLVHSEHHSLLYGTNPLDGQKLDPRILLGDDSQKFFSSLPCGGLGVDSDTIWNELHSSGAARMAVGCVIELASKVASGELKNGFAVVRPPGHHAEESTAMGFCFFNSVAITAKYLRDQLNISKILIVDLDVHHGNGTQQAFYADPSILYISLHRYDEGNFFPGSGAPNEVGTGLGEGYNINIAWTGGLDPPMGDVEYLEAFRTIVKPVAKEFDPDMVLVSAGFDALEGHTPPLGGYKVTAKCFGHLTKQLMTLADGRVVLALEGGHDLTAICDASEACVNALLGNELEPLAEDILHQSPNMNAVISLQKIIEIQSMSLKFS
# Protocol: as §1, §2
# acetylated tubulin = test: High-content image analysis of induction of acetylated tubulin in A549 cells; conditions: for EC50: Homo sapiens, A549, 8 h, read-out: EC50 for half-maximal induction of acetylated tubulin (AcTubulin); for AcHistone/AcTubulin in cell selectivity toward HDAC6: ratio of EC50 acetylated histone to EC50 acetylated tubulin, A549 cells
Structure (SMILES),HDAC2/HDAC6 in vitro selectivity (HDAC2),IC50 (HDAC2) [nM],HDAC3/HDAC6 in vitro selectivity (HDAC3),IC50 (HDAC3) [nM],HDAC5/HDAC6 in vitro selectivity (HDAC5),IC50 (HDAC5) [nM],HDAC7/HDAC6 in vitro selectivity (HDAC7),IC50 (HDAC7) [nM],HDAC8/HDAC6 in vitro selectivity (HDAC8),IC50 (HDAC8) [nM],HDAC9/HDAC6 in vitro selectivity (HDAC9),IC50 (HDAC9) [nM],EC50 (acetylated tubulin) [nM],AcHistone/AcTubulin in cell selectivity toward HDAC6 (acetylated tubulin),selectivity toward HDAC6 compared to HDAC9 (in words) (HDAC9),selectivity toward HDAC6 compared to HDAC5 (in words) (HDAC5; tested in vitro),selectivity toward HDAC6 compared to HDAC7 (in words) (HDAC7; tested in vitro),selectivity toward HDAC6 compared to HDAC8 (in words) (HDAC8; tested in vitro)
"Cc1ccc2c(c1)ncn2Cc1ccc(C(=O)NO)cc1 [A8, N-hydroxy-4-((5-methyl-1H-benzo[d]imidazol-1-yl)methyl)benzamide]",762,290,1596,608,3687,1400,1098,418,2847,1080,5975,2280,105,0.7591,,,,
"O=C(NO)c1ccc(Cn2cnc3cc(F)ccc32)cc1 [A9, 4-((5-fluoro-1H-benzo[d]imidazol-1-yl)methyl)-N-hydroxybenzamide]",3132,208,9140,606,15350,1020,4925,327,12348,819,32978,2190,132,0.4765,"exceptionally high selectivity (Inhibitors with in vitro selectivity values for HDAC6 of at least 30,000 are considered to have exceptionally high selectivity toward HDAC6)",,,
"O=C(NO)c1ccc(Cn2cnc3cc(Cl)ccc32)cc1 [A10, 4-((5-chloro-1H-benzo[d]imidazol-1-yl)methyl)-N-hydroxybenzamide]",1364,94.1,3046,210,9686,668,4029,278,7524,519,17278,1190,188,4.787,,,,
"O=C(NO)c1ccc(Cn2cnc3cc(Br)ccc32)cc1 [A11, 4-((5-bromo-1H-benzo[d]imidazol-1-yl)methyl)-N-hydroxybenzamide]",1601,26.7,3936,65.6,25649,427,4265,71.1,18285,305,61100,1020,174,11.31,"exceptionally high selectivity (Inhibitors with in vitro selectivity values for HDAC6 of at least 30,000 are considered to have exceptionally high selectivity toward HDAC6)",,,
"COc1ccc2c(c1)ncn2Cc1ccc(C(=O)NO)cc1 [A12, N-hydroxy-4-((5-methoxy-1H-benzo[d]imidazol-1-yl)methyl)benzamide]",1125,244,2293,497,7819,1700,4070,883,6543,1420,10933,2370,221,0.4738,,,,
"O=C(NO)c1ccc(Cn2c(=O)[nH]c3ccccc32)cc1 [B1, N-hydroxy-4-((2-oxo-2,3-dihydro-1H-benzo[d]imidazol-1-yl)methyl)benzamide]",6974,101,14575,212,117927,1710,30509,443,46328,673,155186,2250,89.4,2.941,"exceptionally high selectivity (Inhibitors with in vitro selectivity values for HDAC6 of at least 30,000 are considered to have exceptionally high selectivity toward HDAC6)","exceptionally high selectivity (Inhibitors with in vitro selectivity values for HDAC6 of at least 30,000 are considered to have exceptionally high selectivity toward HDAC6)","exceptionally high selectivity (Inhibitors with in vitro selectivity values for HDAC6 of at least 30,000 are considered to have exceptionally high selectivity toward HDAC6)","exceptionally high selectivity (Inhibitors with in vitro selectivity values for HDAC6 of at least 30,000 are considered to have exceptionally high selectivity toward HDAC6)"
